Data taken from US20120041026A1, “(R)-4-((4-((4-(TETRAHYDROFURAN-3-YLOXY)BENZO[D]ISOXAZOL-3-YLOXY)METHYL)PIPERIDIN-1-YL)METHYL)TETRAHYDRO-2H-PYRAN-4-OL, A PARTIAL AGONIST OF 5-HT4 RECEPTORS” (Pfizer Inc., priority 2010, published 2012).
Like-named read-outs stand apart in the source and are kept apart here. Marks after values point to notes of the source that are not given here.

How the values were obtained:
human 5-HT4d [1] = biological target: T1, human 5-HT4d (Homo sapiens, UniProt Q13639); experiment: Agonist-induced cAMP elevation in human 5-HT4d transfected HEK293 cells, 96 well format; type: cell-based; details: normalized to 1,000 nM serotonin; for % IA (intrinsic activity, % agonist effect) RT: RT incubation, plate format not marked
T1 construct: expressed in transfected cells; host or cells: HEK293
T1 sequence (Q13639 1-360 isoform Q13639-3): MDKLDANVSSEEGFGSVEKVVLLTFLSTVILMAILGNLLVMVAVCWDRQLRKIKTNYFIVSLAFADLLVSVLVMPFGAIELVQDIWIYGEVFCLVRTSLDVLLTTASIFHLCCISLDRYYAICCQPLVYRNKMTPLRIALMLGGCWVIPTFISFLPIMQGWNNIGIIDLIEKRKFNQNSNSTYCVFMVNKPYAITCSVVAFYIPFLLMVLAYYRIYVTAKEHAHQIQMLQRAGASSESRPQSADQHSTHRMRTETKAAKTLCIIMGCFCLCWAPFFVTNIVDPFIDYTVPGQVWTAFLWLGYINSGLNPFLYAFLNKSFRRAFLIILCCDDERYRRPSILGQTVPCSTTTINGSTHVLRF
Experimental: Agonist-induced cAMP elevation in human 5-HT4d transfected HEK293 cells, 96 well format: Human 5-HT4(d) transfected HEK293 cells were established in-house. The cells were grown at 37° C. and 5% CO2 in DMEM supplemented with 10% FCS, 20 mM HEPES (pH 7.4), 200 μg/mL hygromycin B (Gibco), 100 units/mL penicillin and 100 μg/mL streptomycin. The cells were grown to 60-80% confluence. On the previous day before treatment with compounds, dialyzed FCS (Gibco) was substituted for normal and the cells were incubated overnight. […] The cells were harvested with PBS/1 mM EDTA, centrifuged and washed with PBS. At the beginning of the assay, cell pellet was resuspended in DMEM supplemented with 20 mM HEPES, 10 μM pargyline (Sigma) and 1 mM 3-isobutyl-1-methylxanthine (Sigma) at the concentration of 1.6×10^5 cells/mL and left for 15 min at RT or 37° C. […] After incubation for 15 min at RT or 37° C., 1% Triton X-100 was added to stop the reaction (25 μL/well) and the plates were left for 30 min at RT. Homogenous time-resolved fluorescence-based cAMP (Schering) detection was made according to the manufacturer's instruction. […] Data was analyzed based on the ratio of fluorescence intensity of each well at 620 nm and 665 nm followed by cAMP quantification using cAMP standard curve. Enhancement of cAMP production elicited by each compound was normalized to the amount of cAMP produced by 1,000 nM serotonin (Sigma). Intrinsic activity is reported in Table 1, below, as % agonist effect.

[2] = Brain Penetration Assay (plasma and brain drug levels by LC/MS/MS); details: rat, 5 mg/kg subcutaneous; for Brain AUC / Plasma AUC: 0.5-4 h post-dose; for Brain:Plasma ratio: ratio of AUCs
Experimental: (§1) Blood samples were collected via cardiac puncture after euthanization with CO2 at 0.5, 1, 2, and 4 h post-dose. Samples were placed in EDTA tubes and kept on ice. Whole brain was collected via decapitation. Brain samples were immediately stored in dry ice. Blood samples were spun down to collect plasma. Plasma and brain samples were stored at −20° C. until analysis. LC/MS/MS was used to measure plasma and brain drug levels.

[3] = human, 1 uM, pH 7.4
Experimental: (§2) Human Liver Microsome Stability Assay: Human liver microsomes (HLMs) are used in a metabolic stability assay to determine the NADPH-dependent in vitro apparent intrinsic metabolic clearance (CLint,app) of a drug (primarily mediated by P450 metabolism). In the HLM assay, test compounds are incubated with HLMs & an NADPH regenerating system in 100 mM potassium phosphate buffer (pH 7.4). The HLMs used in this assay are prepared as a pool from many individual donors. The concentration of HLMs and test compound are 0.71 mg protein/ml and 1 uM, respectively. The reaction is started by the addition of microsomes and buffer to compound. At 0, 5, 10, 20, 30, and 60 minutes, the sample is crashed with ACN/IS (3 times the incubation volume), spun at 4° C. and 3500 rpm for 10 minutes. A matrix and 60 minute w/o NADPH sample are also incubated for 60 minutes serving as negative and positive controls. The matrix sample contains buffer, microsomes, and NADPH (no compound); where as, the 60 minute w/o NADPH sample contains buffer, microsomes, and compound (no NADPH). After centrifugation, the supernatant is removed from the sample, combined with equal parts of water, and stored in the refrigerator until analysis. Drug levels are quantified by mass spectrometry. Clearance is frequently expressed as an extraction ratio (Er) which is calculated as hepatic clearance/hepatic blood flow (range 0-1).

[4] = tested on: THLE-2 (transformed human liver epithelial) cells; experiment: THLE assay (cell viability by cellular ATP); type: cell-based; details: read-out: THLE IC50
Experimental: THLE assay: The THLE assay is predictive of general cell health and measures cell depletion in a human cell line of hepatic origin. THLE-2 (transformed human liver epithelial) cells were obtained from ATCC(CRL-2706 or CRL-10149) and cultured according to ATCC's recommendation. Media consisted of basal medium (BEGM Bullet Kit, Lonza Cat #CC-3170), supplemented with 10% fetal bovine serum (Sigma Cat #F4135) and 2.5 ng/L hEFG (BD Biosciences Cat #356052) and 700 ng/L phosphoethanolamine (Sigma Cat #p-0503). Cells were cultured in T175 human fibronectin/collagen/bovine serum albumin coated flasks. For each experiment, cells were plated onto 384 well plates (custom order, BD Biosciences Cat #359298) at a cell density of 2.5×10^3/well in a total medium volume of 25 μL/well. Plates were incubated for 24 h at 37° C., 5% CO2. […]
Following the 72 h exposure to test compounds, cell viability in each well was determined by measuring the concentration of cellular ATP using the Lonza Vialight™ Plus Cell Proliferation/Cytoxicity Kit (Lonza cat: LT07-121) according to the manufacturer's protocol. The ATP concentration was determined by reading luminescence using a Wallac Envision plate reader (Perkin Elmer, Waltham, Mass., USA). Percent of viable cells relative to no-drug treated controls was determined for each well. […]

in vivo = details: male, Sprague-Dawley, rat, sc, 5 mg/kg
Experimental: as §1

[5] = rat, in vivo
Experimental: as §1

[6] = Human Liver Microsome Stability Assay; details: HLM 0.71 mg protein/ml, 1 uM compound, NADPH; hepatic clearance/hepatic blood flow (range 0-1)
Experimental: as §2

human 5-HT4d [7] = biological target: T1, human 5-HT4d; experiment: Agonist-induced cAMP elevation in human 5-HT4d transfected HEK293 cells, 384 well format; type: cell-based; details: normalized to 1 uM serotonin
Experimental: The cells were grown to 60-80% confluence. […] Intrinsic activity is reported in Table 1, below, as % agonist effect.

Row | SMILES | % IA (intrinsic activity, % agonist effect) 37° C., 96-well format (human 5-HT4d [1]) | % IA (intrinsic activity, % agonist effect) RT (human 5-HT4d [1]) [%] | Er (extraction ratio) [6] | other results
1 | O=C(O)C1(CN2CCC(COc3noc4cccc(OCC(F)(F)F)c34)CC2)CCOCC1 [B] | 103^a % | 56.3 | – | Brain AUC [2]: 160 ng·h/g; Plasma AUC [2]: 4090 ng·h/mL; Brain:Plasma ratio [2]: 0.039
2 | OC1(CN2CCC(COc3noc4cccc(O[C@@H]5CCOC5)c34)CC2)CCOCC1 [Compound X, (R)-4-((4-((4-(tetrahydrofuran-3-yloxy)benzo[d]isoxazol-3-yloxy)methyl)piperidin-1-yl)methyl)tetrahydro-2H-pyran-4-ol] | – | – | – | Er (extraction ratio) [3]: 0.62; IC50 ([4]; Homo sapiens, THLE-2, 72 h): > 300 µM; AUC (in vivo): 1760 ng·h/mL; Brain AUC ([5]; male, Sprague-Dawley, sc, 5 mg/kg): 1790 ng·h/g; brain penetration (in words) [5]: freely crosses the blood brain barrier
3 | CC(C)COc1cccc2onc(OCC3CCN(CC4(C(=O)O)CCCC4)CC3)c12 [D] | 95.0^a % | 36.0 | 0.36 | –
4 | CC(C)COc1cccc2onc(OCC3CCN(CC4(C(=O)O)CCOCC4)CC3)c12 [F] | 118^a % | 55.5 | 0.28 | Brain AUC [2]: 319 ng·h/g; Plasma AUC [2]: 2950 ng·h/mL; Brain:Plasma ratio [2]: 0.108
5 | O=C(O)C1(CN2CCC(COc3noc4cccc(OCC5(CO)CCCC5)c34)CC2)CCOCC1 [G] | 79.0^a % | 33.0 | <0.27 | –
6 | OC1(COc2cccc3onc(OCC4CCN(CC5(O)CCOCC5)CC4)c23)CCCC1 [H] | 104% | 30.8 | 0.83 | % IA (intrinsic activity, % agonist effect) 37° C., 384-well format (human 5-HT4d [7]): 50%
7 | CC(C)COc1cccc2onc(OCC3CCN(CC4(O)CCOCC4)CC3)c12 [J] | – | 39.1 | 0.78 | IC50 ([4]; 72 h exposure, concentration range 300-0.058 μM): 56 µM; % IA (intrinsic activity, % agonist effect) 37° C., 384-well format (human 5-HT4d [7]): 55^b %
